Our source for the IC50 values is paper PMC11903733 (Frontiers in Pharmacology, 2025).

Bounds are passed on as bounds.

The subject of one assay is RPMI-8226 cells. The assay is described as follows: MTS cell proliferation assay. The class given is cell-based. As to conditions: Homo sapiens, LSD1-non-sensitive RPMI-8226 cells, 72 h. How it is done:
(§1) The myeloid leukemia cell lines MV-4-11, MOLT-4, MOLM-16, HL-60, and the human B lymphocyte cell line […] were purchased from the American Type Culture Collection (ATCC, Manassas, VA, United States). The myeloid leukemia cell line HAL-01 was obtained from the Deutsche Sammlung von Mikroorganismen und Zellkulturen GmbH (DSMZ, Braunschweig, Germany). All cells were cultured in IMDM or RPMI -1640 medium supplemented with 10% FBS, 100 U/mL penicillin, and 100 μg/mL streptomycin. The cells were maintained in a humidified incubator with an atmosphere of 5% CO2 at 37°C.
(§2) The in vitro anti-proliferative activity of the compounds was determined using the CellTiter 96® AQueous NonRadioactive Cell Proliferation Assay Kit (Promega, Madison, United States) as previously described ([Ji et al., 2017]). In brief, 5–10 × 10^3 cells and 180 μL of medium were first seeded into each well of a 96-well plate. Subsequently, the cells were exposed to either 0.2% Dimethyl sulfoxide (DMSO, Aladdin Reagent, Shanghai, China) or a serial dilution of the compounds, prepared from a 10 mM stock solution in DMSO, with the final concentration of DMSO being 0.2% for 72 h. 20 μL of MTS reagent was added to each well, and the culture was incubated in the dark at 37°C for 4 h. Finally, the optical density (OD) was then recorded at 490 nm and 690 nm using a microplate reader from Molecular Devices. The proliferation inhibition rate was calculated according to the following formula: inhibition ratio = (OD of DMSO treated wells - OD of compound treated wells)/(OD of DMSO treated wells - OD of blank wells) × 100%. The IC50 values of the compounds inhibiting cell proliferation were calculated using GraphPad Prism 10 (GraphPad Software Inc., San Diego, CA).

Another assay concerns MV-4-11 cells. The assay is described as follows: MTS cell proliferation assay. In kind it is cell-based. The conditions noted are these: Homo sapiens, MV4-11, LSD1-addicted MV-4-11 leukemia cells, 72 h. Here is the method: as §1, §2
The target in the next assay is EPHB1 (Homo sapiens, UniProt P54762). The assay is described as follows: SelectScreen kinase profiling. In kind it is biochemical. Here is the method:
(§3) The kinase selectivity analysis of LTM-1 was performed utilizing the SelectScreen Kinase Profiling Service offered by Thermo Fisher Scientific. In a dose-response assay featuring a ten-point dilution series from 0.25 μM to 128 μM, the inhibitory effects of LTM-1 on substrate phosphorylation reactions catalyzed by a panel of kinases were assessed. Consequently, the half-maximal inhibitory concentrations (IC50 values) for each kinase were determined.

The target of a further assay is ABL1 (Homo sapiens, UniProt P00519). The assay can be described thus: SelectScreen kinase profiling. The class given is biochemical. Here is the method: as §3
A further assay deals with BLK (Homo sapiens, UniProt P51451). The assay can be described thus: SelectScreen kinase profiling. The class given is biochemical. How it is done: as §3
The target in a further assay is DDR2 (Homo sapiens, UniProt Q16832). The assay can be described thus: SelectScreen kinase profiling. In kind it is biochemical. Here is the method: as §3
The target in another assay is DDR1 (Homo sapiens, UniProt Q08345). The assay is described as follows: SelectScreen kinase profiling. The class given is biochemical. How it is done:
as §3

The target in a further assay is CDK1 (Homo sapiens, UniProt P06493). The assay is described as follows: SelectScreen kinase profiling. The class given is biochemical. Here is the method: as §3
The target of another assay is FGFR3 (Homo sapiens, UniProt P22607). The assay can be described thus: SelectScreen kinase profiling. In kind it is biochemical. How it is done: as §3
The target in the next assay is FGFR4 (Homo sapiens, UniProt P22455). The assay is described as follows: SelectScreen kinase profiling. The class given is biochemical. How it is done:
as §3

The target of another assay is EPHB3 (Homo sapiens, UniProt P54753). The assay can be described thus: SelectScreen kinase profiling. The class given is biochemical. How it is done:
as §3

The next assay deals with FGFR1 (Homo sapiens, UniProt P11362). The assay can be described thus: SelectScreen kinase profiling. The class given is biochemical. How it is done:
as §3

For another assay, the target named is EPHB4 (Homo sapiens, UniProt P54760). The assay is described as follows: SelectScreen kinase profiling. The class given is biochemical. Here is the method:
as §3

A further assay addresses ALK (Homo sapiens, UniProt Q9UM73). The assay is described as follows: SelectScreen kinase profiling. In kind it is biochemical. Here is the method:
as §3

In another assay the target is MST1R (Homo sapiens, UniProt Q04912). The assay is described as follows: SelectScreen kinase profiling. The class given is biochemical. Here is the method: as §3
The target of another assay is JAK1 (Homo sapiens, UniProt P23458). The assay is described as follows: SelectScreen kinase profiling. In kind it is biochemical. How it is done:
as §3

A further assay has as its target PIM1 (Homo sapiens, UniProt P11309). The assay is described as follows: SelectScreen kinase profiling. In kind it is biochemical. How it is done: as §3
A further assay concerns the target RAF1 (Homo sapiens, UniProt P04049, Y340D/Y341D). The assay is described as follows: SelectScreen kinase profiling. The class given is biochemical. How it is done:
as §3

A further assay concerns the target FGR (Homo sapiens, UniProt P09769). The assay can be described thus: SelectScreen kinase profiling. In kind it is biochemical. How it is done:
as §3

The test system of a further assay is MOLT-4. The assay can be described thus: MTS cell proliferation assay. The class given is cell-based. The conditions noted are these: Homo sapiens, growth inhibition after 72 h. How it is done: as §1, §2
(§4) ^aIC50 (μM) is the concentration of compound needed to reduce cell growth by 50% after 72 h treatment with LTM-1.

The next assay deals with HAL-01. The assay is described as follows: MTS cell proliferation assay. The class given is cell-based. The conditions noted are these: Homo sapiens, growth inhibition after 72 h. How it is done: as §1, §2, §4
(In general: Tetrazolium dyes change colour on reduction, which living cells bring about.)

The test system of the next assay is MOLM-16. The assay can be described thus: MTS cell proliferation assay. In kind it is cell-based. As to conditions: MOLM16; growth inhibition after 72 h. How it is done: as §1, §2, §4
A further assay deals with HL-60. The assay can be described thus: MTS cell proliferation assay. The class given is cell-based. The conditions noted are these: Homo sapiens, growth inhibition after 72 h. How it is done:
as §1, §2, §4

Sequence of EPHB1 (P54762 18-984): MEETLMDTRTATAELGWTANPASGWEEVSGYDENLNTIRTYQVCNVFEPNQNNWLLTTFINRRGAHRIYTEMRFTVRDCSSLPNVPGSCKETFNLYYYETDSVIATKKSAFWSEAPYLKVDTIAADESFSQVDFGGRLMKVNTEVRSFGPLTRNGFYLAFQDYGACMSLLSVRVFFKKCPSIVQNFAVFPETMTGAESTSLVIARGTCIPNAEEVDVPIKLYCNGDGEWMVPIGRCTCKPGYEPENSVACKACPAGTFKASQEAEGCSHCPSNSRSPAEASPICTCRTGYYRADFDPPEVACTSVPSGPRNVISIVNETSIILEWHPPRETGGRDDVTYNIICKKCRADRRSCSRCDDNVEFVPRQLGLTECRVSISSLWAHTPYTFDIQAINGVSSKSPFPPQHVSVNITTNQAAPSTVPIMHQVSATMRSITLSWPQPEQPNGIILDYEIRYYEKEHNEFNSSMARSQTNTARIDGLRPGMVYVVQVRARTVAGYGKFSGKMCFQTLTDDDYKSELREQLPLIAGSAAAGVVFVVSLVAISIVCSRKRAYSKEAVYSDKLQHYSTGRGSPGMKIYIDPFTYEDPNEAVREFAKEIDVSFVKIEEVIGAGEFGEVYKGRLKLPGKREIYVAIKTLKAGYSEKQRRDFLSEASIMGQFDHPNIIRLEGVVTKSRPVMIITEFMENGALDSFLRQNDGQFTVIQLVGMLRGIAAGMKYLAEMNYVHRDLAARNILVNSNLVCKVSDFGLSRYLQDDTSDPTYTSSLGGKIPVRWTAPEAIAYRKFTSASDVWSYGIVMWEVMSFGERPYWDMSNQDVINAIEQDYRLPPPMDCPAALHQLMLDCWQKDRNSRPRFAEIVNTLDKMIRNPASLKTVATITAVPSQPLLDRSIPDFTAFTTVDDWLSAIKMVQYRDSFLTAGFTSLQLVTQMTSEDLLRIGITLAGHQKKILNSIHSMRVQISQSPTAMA
Sequence of FGFR4 (P22455 22-802): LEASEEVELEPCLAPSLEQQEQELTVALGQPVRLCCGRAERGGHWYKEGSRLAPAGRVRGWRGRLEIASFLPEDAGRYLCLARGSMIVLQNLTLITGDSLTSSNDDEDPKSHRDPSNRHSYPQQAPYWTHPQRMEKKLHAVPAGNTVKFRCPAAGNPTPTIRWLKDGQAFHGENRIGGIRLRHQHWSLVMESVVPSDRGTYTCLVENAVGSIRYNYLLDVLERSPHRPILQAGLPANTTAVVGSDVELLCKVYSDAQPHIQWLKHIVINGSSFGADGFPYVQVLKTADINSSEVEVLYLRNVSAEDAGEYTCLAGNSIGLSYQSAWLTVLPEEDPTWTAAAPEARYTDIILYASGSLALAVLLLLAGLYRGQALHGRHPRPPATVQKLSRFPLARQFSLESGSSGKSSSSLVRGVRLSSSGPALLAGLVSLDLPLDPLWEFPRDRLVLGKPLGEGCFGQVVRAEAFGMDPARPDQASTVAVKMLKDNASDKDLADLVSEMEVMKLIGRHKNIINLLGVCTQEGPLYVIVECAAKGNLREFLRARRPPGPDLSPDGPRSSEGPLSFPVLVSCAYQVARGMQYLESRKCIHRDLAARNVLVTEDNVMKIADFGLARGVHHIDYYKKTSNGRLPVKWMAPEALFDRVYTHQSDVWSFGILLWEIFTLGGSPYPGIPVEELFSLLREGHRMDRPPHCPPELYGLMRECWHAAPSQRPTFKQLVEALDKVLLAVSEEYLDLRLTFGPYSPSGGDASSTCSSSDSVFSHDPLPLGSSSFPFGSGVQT
Sequence of FGFR1 (P11362 22-822): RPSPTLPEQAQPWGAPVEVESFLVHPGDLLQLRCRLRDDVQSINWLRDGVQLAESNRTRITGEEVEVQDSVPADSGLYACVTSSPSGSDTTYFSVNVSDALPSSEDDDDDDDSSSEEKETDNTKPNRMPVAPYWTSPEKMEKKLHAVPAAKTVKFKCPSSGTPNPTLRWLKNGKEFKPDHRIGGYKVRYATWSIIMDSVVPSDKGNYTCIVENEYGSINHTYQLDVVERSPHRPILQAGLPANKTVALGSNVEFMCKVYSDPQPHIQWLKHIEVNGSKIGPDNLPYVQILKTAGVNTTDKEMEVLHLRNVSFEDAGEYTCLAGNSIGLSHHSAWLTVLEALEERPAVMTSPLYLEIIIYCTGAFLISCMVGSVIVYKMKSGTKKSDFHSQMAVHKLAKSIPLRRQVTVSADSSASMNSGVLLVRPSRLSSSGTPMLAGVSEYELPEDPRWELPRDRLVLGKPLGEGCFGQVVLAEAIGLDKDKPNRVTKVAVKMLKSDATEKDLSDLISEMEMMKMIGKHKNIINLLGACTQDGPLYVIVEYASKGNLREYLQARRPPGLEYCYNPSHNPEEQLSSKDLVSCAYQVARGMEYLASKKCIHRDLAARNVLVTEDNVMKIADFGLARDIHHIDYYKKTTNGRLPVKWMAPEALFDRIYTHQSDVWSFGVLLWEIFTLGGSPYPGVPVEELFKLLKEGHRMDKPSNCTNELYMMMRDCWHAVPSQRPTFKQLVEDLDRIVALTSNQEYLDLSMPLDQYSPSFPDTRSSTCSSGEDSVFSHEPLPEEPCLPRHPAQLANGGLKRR
Sequence of RAF1 (P04049 306-648 Y340D/Y341D limits assumed): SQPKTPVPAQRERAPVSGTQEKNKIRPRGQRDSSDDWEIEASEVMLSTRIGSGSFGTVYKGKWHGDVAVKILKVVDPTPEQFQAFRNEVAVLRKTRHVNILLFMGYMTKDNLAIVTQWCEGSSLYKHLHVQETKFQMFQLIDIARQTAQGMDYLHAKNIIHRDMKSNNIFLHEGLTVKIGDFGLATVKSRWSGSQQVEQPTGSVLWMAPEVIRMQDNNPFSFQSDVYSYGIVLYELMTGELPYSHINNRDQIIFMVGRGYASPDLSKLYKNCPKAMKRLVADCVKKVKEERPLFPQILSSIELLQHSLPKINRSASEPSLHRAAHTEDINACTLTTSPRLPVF
Sequence of FGR (P09769 whole entry): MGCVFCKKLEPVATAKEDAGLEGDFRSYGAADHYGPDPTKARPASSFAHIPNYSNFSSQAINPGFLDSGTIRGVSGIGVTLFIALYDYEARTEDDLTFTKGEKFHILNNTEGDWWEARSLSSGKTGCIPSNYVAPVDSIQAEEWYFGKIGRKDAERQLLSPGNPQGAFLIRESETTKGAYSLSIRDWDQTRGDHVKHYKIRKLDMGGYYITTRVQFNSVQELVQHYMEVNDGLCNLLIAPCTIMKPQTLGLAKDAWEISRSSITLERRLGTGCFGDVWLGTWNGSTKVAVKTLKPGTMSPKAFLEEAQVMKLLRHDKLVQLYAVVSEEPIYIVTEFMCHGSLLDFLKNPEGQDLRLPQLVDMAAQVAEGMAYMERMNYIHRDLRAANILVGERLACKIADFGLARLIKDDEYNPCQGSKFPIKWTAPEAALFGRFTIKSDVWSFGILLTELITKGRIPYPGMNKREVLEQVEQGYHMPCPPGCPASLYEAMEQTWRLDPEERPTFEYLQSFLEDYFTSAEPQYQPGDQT
Sequence of BLK (P51451 whole entry): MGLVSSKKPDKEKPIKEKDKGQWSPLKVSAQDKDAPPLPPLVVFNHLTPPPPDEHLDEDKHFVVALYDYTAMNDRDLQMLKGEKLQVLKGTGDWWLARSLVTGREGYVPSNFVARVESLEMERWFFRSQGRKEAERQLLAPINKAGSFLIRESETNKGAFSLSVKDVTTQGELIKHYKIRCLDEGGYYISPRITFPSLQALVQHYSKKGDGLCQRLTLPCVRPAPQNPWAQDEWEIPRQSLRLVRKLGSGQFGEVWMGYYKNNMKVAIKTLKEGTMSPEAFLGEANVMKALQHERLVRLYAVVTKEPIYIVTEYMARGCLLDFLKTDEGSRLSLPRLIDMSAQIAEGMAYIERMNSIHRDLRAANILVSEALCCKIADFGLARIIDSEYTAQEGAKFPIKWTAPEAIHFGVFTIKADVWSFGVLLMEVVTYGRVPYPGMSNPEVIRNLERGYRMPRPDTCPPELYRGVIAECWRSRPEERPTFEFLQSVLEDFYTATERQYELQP
Sequence of DDR2 (Q16832 22-855): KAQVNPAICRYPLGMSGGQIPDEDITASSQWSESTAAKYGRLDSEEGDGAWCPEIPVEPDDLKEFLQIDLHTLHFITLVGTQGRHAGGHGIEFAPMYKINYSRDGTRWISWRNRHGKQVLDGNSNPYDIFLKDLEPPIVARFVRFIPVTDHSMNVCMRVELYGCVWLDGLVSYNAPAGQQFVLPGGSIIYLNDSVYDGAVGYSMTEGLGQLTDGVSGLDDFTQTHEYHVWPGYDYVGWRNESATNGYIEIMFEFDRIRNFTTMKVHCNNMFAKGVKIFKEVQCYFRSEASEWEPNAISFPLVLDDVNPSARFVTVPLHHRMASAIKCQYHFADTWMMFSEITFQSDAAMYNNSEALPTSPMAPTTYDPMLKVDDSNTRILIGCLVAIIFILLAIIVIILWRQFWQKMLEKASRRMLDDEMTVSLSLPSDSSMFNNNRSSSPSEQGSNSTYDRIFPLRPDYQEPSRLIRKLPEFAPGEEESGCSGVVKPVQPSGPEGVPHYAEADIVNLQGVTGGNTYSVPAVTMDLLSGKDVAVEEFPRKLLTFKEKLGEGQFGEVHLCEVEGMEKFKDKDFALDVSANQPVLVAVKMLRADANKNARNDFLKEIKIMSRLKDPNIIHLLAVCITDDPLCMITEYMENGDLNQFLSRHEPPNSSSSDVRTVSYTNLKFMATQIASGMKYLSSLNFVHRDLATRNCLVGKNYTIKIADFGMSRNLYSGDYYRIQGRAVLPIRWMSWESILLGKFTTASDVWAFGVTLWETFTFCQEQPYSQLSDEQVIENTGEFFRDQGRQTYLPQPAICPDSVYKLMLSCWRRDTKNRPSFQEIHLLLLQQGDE

Take `O=S(=O)(c1ccc(C(O)CO)c(C(F)(F)F)c1)N1CCc2cc(C3CC3NCC3CCNCC3)ccc21` (centres unmarked) [LTM-1]: the IC50 with RPMI-8226 cells is above 100 µM; in the assay with MV-4-11 cells it was 0.16 ± 0.01 µM; against EPHB1, above 10 µM; on ABL1, above 10 µM; against BLK it was above 10 µM; against DDR2 it was above 10 µM. Moreover, the 50% inhibitory concentration (IC50) on DDR1, against CDK1, on FGFR3, on FGFR4, against EPHB3 and on FGFR1 was above 10 µM each time. The IC50 against EPHB4, on ALK, on MST1R, against JAK1, against PIM1 and at RAF1 was above 10 µM in each case. Also, the IC50 was above 10 µM at FGR; 0.19 ± 0.01 µM with MOLT-4; 0.25 ± 0.01 µM in the assay on HAL-01; 0.27 ± 0.02 µM in the assay on MOLM-16; 0.39 ± 0.03 µM with HL-60.

A word on the IC50: it is the point on the concentration scale where inhibition reaches its midpoint.
